Source: ChEMBL document CHEMBL1142398, “Chemical stability of the peroxide bond enables diversified synthesis of potent tetraoxane antimalarials” (J Med Chem, 2008)

Key:
Plasmodium falciparum [1] = assay: microbe, parasite or virus in culture; details: D6
Description: Antimalarial activity against Plasmodium falciparum D6

Plasmodium falciparum [2] = assay: microbe, parasite or virus in culture; details: W2
Description: Antimalarial activity against Plasmodium falciparum W2

[3] = Metabolic stability assessed as half life in human liver microsomes; assay type: ADME, Microsome
[4] = Metabolic stability assessed as half life in mouse liver microsomes; assay type: ADME, Microsome
Plasmodium falciparum [5] = assay: microbe, parasite or virus in culture; details: TM91C235
Description: Antimalarial activity against multidrug-resistant Plasmodium falciparum TM91C235

Plasmodium berghei [6] = assay: Antimalarial activity against Plasmodium berghei KBG173 infected CD1 mice (Mus musculus) on subcutaneous dose after 3-5 days; assay type: functional
Plasmodium berghei [7] = assay: Antimalarial activity against Plasmodium berghei KBG173 infected CD1 mice (Mus musculus) at 300 mg/kg/day subcutaneous dose as survival time after 3-5 days; assay type: functional
Plasmodium berghei [8] = assay: Antimalarial activity against Plasmodium berghei KBG173 infected CD1 mice (Mus musculus) at 150 mg/kg/day subcutaneous dose as survival time after 3-5 days; assay type: functional
Plasmodium berghei [9] = assay: Antimalarial activity against Plasmodium berghei KBG173 infected CD1 mice (Mus musculus) at 37.5 mg/kg/day subcutaneous dose as survival time after 3-5 days; assay type: functional
Plasmodium berghei [10] = assay: Antimalarial activity against Plasmodium berghei KBG173 infected CD1 mice (Mus musculus) at 9.3 mg/kg/day subcutaneous dose as survival time after 3-5 days; assay type: functional

| Compound | IC50 (Plasmodium falciparum [1]) [µM] | IC50 (Plasmodium falciparum [2]) [µM] | half-life [3] [min] | half-life [4] [min] | IC90 (Plasmodium falciparum [1]) [µM] | IC90 (Plasmodium falciparum [2]) [µM] | IC50 (Plasmodium falciparum [5]) [µM] | IC90 (Plasmodium falciparum [5]) [µM] | MCD (Plasmodium berghei [6]) | Survival (Plasmodium berghei [7]) [days] | Survival (Plasmodium berghei [8]) [days] | Survival (Plasmodium berghei [9]) [days] | Survival (Plasmodium berghei [10]) [days] |
| --- | --- | --- | --- | --- | --- | --- | --- | --- | --- | --- | --- | --- | --- |
| CC(=O)O[C@H]1C[C@H]2[C@@H]([C@H](OC(C)=O)C[C@@H]3CC4(CC[C@@]32C)OOC2(CCCCC2)OO4)[C@@H]2CC[C@H]([C@H](C)CCC(=O)O)[C@@]12C | 0.0306 | 0.0192 |  |  |  |  |  |  |  |  |  |  |  |
| CC(=O)O[C@H]1C[C@H]2[C@@H]([C@H](OC(C)=O)C[C@@H]3CC4(CC[C@@]32C)OOC2(CCCCC2)OO4)[C@@H]2CC[C@H]([C@H](C)CCCNCCN(C)C)[C@@]12C | 0.0468 | 0.0185 | > 60 | > 60 | 0.11 | 0.0654 | 0.0497 | 0.0881 |  |  |  |  |  |
| CCCNC(=O)C1CCC2(CC1)OOC1(CCCCC1)OO2 | 0.0193 | 0.022 |  |  | 0.0492 | 0.0445 | 0.0253 | 0.0539 |  |  |  |  |  |
| C1CCC(NCC2CCC3(CC2)OOC2(CCCCC2)OO3)CC1 | 0.0112 | 0.00617 | 15.9 | 43.9 | 0.014 | 0.0177 | 0.0108 | 0.0139 | <=37.5 mg/kg/day | >31 | 29 | 22.6 | 13.4 |
| CC(C)NCC1CCC2(CC1)OOC1(CCCCC1)OO2 | 0.0094 | 0.00754 | 38.7 | 9.9 | 0.0145 | 0.0229 | 0.00927 | 0.0167 |  | 23.2 | 23.6 | 18.2 | 11.8 |
| c1ccc(CNCC2CCC3(CC2)OOC2(CCCCC2)OO3)cc1 | 0.0138 | 0.00819 | 42 | 3.5 | 0.0345 | 0.0206 | 0.0139 | 0.0395 |  |  |  |  |  |
| OCC1CCC2(CC1)OOC1(CCCCC1)OO2 | 0.0152 | 0.00654 |  |  | 0.0225 | 0.0116 | 0.0126 | 0.0237 |  |  |  |  |  |
| CCCNCCC[C@@H](C)[C@H]1CC[C@H]2[C@@H]3[C@H](OC(C)=O)C[C@@H]4CC5(CC[C@]4(C)[C@H]3C[C@H](OC(C)=O)[C@]12C)OOC1(CCCCC1)OO5 | 0.0241 | 0.0111 | > 60 | > 60 | 0.0493 | 0.0269 | 0.0208 | 0.0739 |  |  |  |  |  |
| NCC1CCC2(CC1)OOC1(CCCCC1)OO2 | 0.0128 | 0.00779 |  |  | 0.0241 | 0.016 | 0.0198 | 0.029 | <=37.5 mg/kg/day | >31 | >31 | 24.6 | 16.6 |
| CC(=O)O[C@H]1C[C@H]2[C@@H]([C@H](OC(C)=O)C[C@@H]3CC4(CC[C@@]32C)OOC2(CCCCC2)OO4)[C@@H]2CC[C@H]([C@H](C)CCCO)[C@@]12C | 0.0156 | 0.00977 |  |  | 0.0287 | 0.0242 | 0.0181 | 0.0272 |  |  |  |  |  |
